Experimental data from ChEMBL document CHEMBL1138055, “Tetraoxane antimalarials and their reaction with Fe(II)” (J Med Chem, 2006).
Where “and” joins values, the source holds several entries; their conditions need not be identical. Identical values can stand only once.

Experiments:
[1] = system: LOX IMVI; test: Antiproliferative activity against human LOX IMVI cell line after 48 hrs; format: functional; conditions: for CC50: read-out: LC50 (the source's name)
[2] = system: Plasmodium falciparum
Description: (§1) Antimalarial activity against Plasmodium falciparum TM91C235

[3] = system: Plasmodium falciparum; remark: listed apart in the source
Description: (§2) Antimalarial activity against Plasmodium falciparum W2

[4] = Half life in mouse liver microsomes; format: ADME, Microsome
[5] = system: Liver microsomes; test: Intrinsic clearance in human liver microsomes; format: ADME, Microsome
[6] = Half life in human liver microsomes; format: ADME, Microsome
[7] = system: Plasmodium falciparum; remark: listed apart in the source
Description: (§3) Antimalarial activity against Plasmodium falciparum D6

[8] = system: 786-0; test: Antiproliferative activity against human 786-0 cell line after 48 hrs; format: functional; conditions: 786-0, 48 h
[9] = organism: Mus musculus; test: Intrinsic clearance in mouse liver microsomes; format: ADME, Microsome
[10] = system: SK-MEL-28; test: Antiproliferative activity against human SK-MEL28 cell line after 48 hrs; format: functional; conditions: SK-MEL-28, 48 h
[11] = system: SF-539; test: Antiproliferative activity against human SF539 cell line after 48 hrs; format: functional; conditions: SF-539, 48 h
[12] = system: IGROV-1; test: Antiproliferative activity against human IGROV1 cell line after 48 hrs; format: functional; conditions: Homo sapiens, IGROV-1, 48 h; for CC50: read-out: LC50 (the source's name)
[13] = system: Mus musculus; test: Effect on survival of CD1 mice (Mus musculus) infected with Plasmodium berghei KBG173 at 2 mg/kg/day, perorally; format: functional; conditions: route oral
[14] = system: Plasmodium falciparum; test: microbe, parasite or virus in culture; conditions: W2
Description: as §2

[15] = system: Plasmodium falciparum; test: microbe, parasite or virus in culture; conditions: D6
Description: as §3

[16] = system: Mus musculus; test: Effect on survival of CD1 mice (Mus musculus) infected with Plasmodium berghei KBG173 at 4 mg/kg/day, peroral; format: functional; conditions: route oral
[17] = system: Plasmodium falciparum; test: microbe, parasite or virus in culture; conditions: TM91C235
Description: as §1

[18] = system: Vero; test: Selectivity index, IC50 for VERO cells/LC50 for UO31 cells; format: functional
[19] = system: UO-31; test: Antiproliferative activity against human UO31 cell line after 48 hrs; format: functional; conditions: Homo sapiens, UO-31, 48 h; for CC50: read-out: LC50 (the source's name)
[20] = system: ACHN; test: Antiproliferative activity against human ACHN cell line after 48 hrs; format: functional; conditions: Homo sapiens, ACHN, 48 h
[21] = system: Vero; test: Selectivity index, IC50 for VERO cells/IC50 for Plasmodium falciparum W2; format: functional
[22] = system: Vero; test: Cytotoxicity against VERO cells; format: functional, cell-based; conditions: Chlorocebus sabaeus
[23] = system: Mus musculus; test: Effect on survival of CD1 mice (Mus musculus) infected with Plasmodium berghei KBG173 at 600 mg/kg/day, perorally; format: functional, organism-based; set-up: route oral; conditions: route oral
[24] = system: NCI-H23; test: Antiproliferative activity against human NCI-H23 cell line after 48 hrs; format: functional; conditions: NCI-H23, 48 h
[25] = system: RPMI-8226; test: Antiproliferative activity against human RPMI8226 cell line after 48 hrs; format: functional
[26] = system: NCI-H460; test: Antiproliferative activity against human NCI-H460 cell line after 48 hrs; format: functional; conditions: NCI-H460, 48 h
[27] = system: TK-10; test: Antiproliferative activity against human TK10 cell line after 48 hrs; format: functional; conditions: TK-10, 48 h
[28] = system: HOP-62; test: Antiproliferative activity against human HOP62 cell line after 48 hrs; format: functional; conditions: Homo sapiens, HOP-62, 48 h
[29] = system: CAKI-1; test: Antiproliferative activity against human CAKI1 cell line after 48 hrs; format: functional; conditions: CAKI-1, 48 h
[30] = system: Mus musculus; test: Effect on survival of CD1 mice (Mus musculus) infected with Plasmodium berghei KBG173 at 200 mg/kg/day, perorally; format: functional; conditions: route oral
[31] = system: Vero; test: Selectivity index, IC50 for VERO cells/IC50 for Plasmodium falciparum D6; format: functional
[32] = system: SF-268; test: Antiproliferative activity against human SF268 cell line after 48 hrs; format: functional; conditions: SF-268, 48 h
[33] = system: COLO 205; test: Antiproliferative activity against human COLO 205 cell line after 48 hrs; format: functional; conditions: Homo sapiens, COLO 205, 48 h
[34] = system: Mus musculus; test: Effect on survival of CD1 mice (Mus musculus) infected with Plasmodium berghei KBG173 at 50 mg/kg/day, perorally; format: functional; conditions: route oral
[35] = system: PBMC; test: Selectivity index, IC50 for PBMC/IC50 for Plasmodium falciparum TM91C235; format: functional
[36] = system: EKVX; test: Antiproliferative activity against human EKVX cell line after 48 hrs; format: functional; conditions: Homo sapiens, EKVX, 48 h
[37] = system: PBMC; test: Selectivity index, IC50 for PBMC/IC50 for Plasmodium falciparum W2; format: functional
[38] = system: PBMC; test: Cytotoxicity against PHA-stimulated human PBMC; format: functional, cell-based
[39] = system: PBMC; test: Cytotoxicity against human peripheral blood mononuclear cells; format: functional, cell-based
[40] = system: PBMC; test: Selectivity index, IC50 for PBMC/LC50 for UO31 cells; format: functional
[41] = system: PBMC; test: Selectivity index, IC50 for PBMC/IC50 for Plasmodium falciparum D6; format: functional
[42] = read-out: LC50 (the source's name)

CC(=O)O[C@H]1C[C@H]2[C@@H]([C@H](OC(C)=O)C[C@@H]3CC4(CC[C@@]32C)OOC2(CCC(C(N)=O)CC2)OO4)[C@@H]2CC[C@H]([C@H](C)CCC(N)=O)[C@@]12C (stereo in doubt; 7)
GI50 [1]: 1.85 µM
TGI [1]: 3.95 µM
CC50 [1]: 8.42 µM
IC50 [2]: 0.0118 µM
IC90 [2]: 0.0567 µM
IC50 [3]: 0.0171 µM
IC90 [3]: 0.0344 µM
half-life [4]: 0.633 h
CL [5]: 3.4 mL/min/g
half-life [6]: 0.35 h
IC50 [7]: 0.011 µM
IC90 [7]: 0.0173 µM
GI50 [8]: 1.69 µM
LC50 [8]: 8.08 µM
TGI [8]: 3.7 µM
CL [9]: 1.59 mL/min/g

CC(=O)O[C@H]1C[C@H]2[C@@H]([C@H](OC(C)=O)C[C@@H]3CC4(CC[C@@]32C)OOC2(CCC(C(=O)NCCN(C)C)CC2)OO4)[C@@H]2CC[C@H]([C@H](C)CCC(=O)NCCN(C)C)[C@@]12C (stereo in doubt; 11)
GI50 [1]: 1.18 µM
TGI [1]: 2.82 µM
CC50 [1]: 19.9 µM
IC50 [2]: 0.0814 µM
IC90 [2]: 0.11 µM
IC50 [3]: 0.113 µM
IC90 [3]: 0.126 µM
GI50 [10]: 1.92 µM
TGI [10]: 11.3 µM
CC50 [10, 42]: 37 µM
half-life [4]: > 2 h
CL [5]: < 0.6 mL/min/g
GI50 [11]: 1.47 µM
TGI [11]: 2.99 µM
CC50 [11, 42]: 9.93 µM
half-life [6]: > 2 h
IC50 [7]: 0.0756 µM
IC90 [7]: 0.0941 µM
GI50 [12]: 0.9 µM
TGI [12]: 2.62 µM
CC50 [12]: 13.4 µM
CL [9]: < 0.6 mL/min/g

CCN(CC)CCCC(C)Nc1ccnc2cc(Cl)ccc12 (configuration not stated) [CHLOROQUINE]
Activity [13]: 12.8 days
IC90 [14]: 0.491 µM
IC90 [15]: 0.0176 µM
Activity [16]: 25.6 days
IC90 [17]: 0.269 µM

CCCC(=O)CC[C@@H](C)[C@H]1CC[C@H]2[C@@H]3[C@H](OC(C)=O)C[C@@H]4CC5(CC[C@]4(C)[C@H]3C[C@H](OC(C)=O)[C@]12C)OOC1(CCCCC1)OO5
Selectivity index [18]: 726
GI50 [19]: < 0.01 µM
TGI [19]: < 0.01 µM
CC50 [19]: 0.017 µM
GI50 [20]: 1.34 µM
LC50 [20]: 5.12 µM
TGI [20]: 2.62 µM
Selectivity index [21]: 1763
IC50 [22]: 12.3 µM
IC50 [14]: 0.0068 µM
IC50 [15]: 0.0148 µM
Activity [23]: 28 days
GI50 [24]: 0.61 µM
TGI [24]: 1.99 µM
CC50 [24, 42]: 4.64 µM
TGI ([25]; Homo sapiens, RPMI-8226, 48 h): 3.47 µM
CC50 [25, 42]: 1.28 µM and 9.37 µM
GI50 [26]: 0.18 µM
TGI [26]: 0.59 µM
CC50 [26, 42]: 2.6 µM
GI50 [27]: 1.67 µM
TGI [27]: 3.62 µM
CC50 [27, 42]: 7.84 µM
GI50 [28]: 0.44 µM
TGI [28]: 1.72 µM
CC50 [28, 42]: 5.4 µM
GI50 [29]: 0.18 µM
TGI [29]: 0.4 µM
CC50 [29, 42]: 0.91 µM
Activity [30]: 24.4 days
GI50 [12]: 0.19 µM
TGI [12]: 0.46 µM
CC50 [12]: 1.36 µM
Selectivity index [31]: 823
GI50 [32]: 1.57 µM
TGI [32]: 3.9 µM
CC50 [32, 42]: 9.68 µM
GI50 [33]: 1.77 µM
TGI [33]: 3.72 µM
CC50 [33, 42]: 7.82 µM
Activity [34]: 14.2 days

CC(=O)O[C@H]1C[C@H]2[C@@H]([C@H](OC(C)=O)C[C@@H]3CC4(CC[C@@]32C)OOC2(CCC(C(=O)Nc3ccccc3)CC2)OO4)[C@@H]2CC[C@H]([C@H](C)CCC(=O)Nc3ccccc3)[C@@]12C (stereo in doubt; 13)
Selectivity index [35]: >25000
GI50 [1]: 0.37 µM
TGI [1]: 1.69 µM
CC50 [1]: 7.15 µM
IC50 [2]: 0.0081 µM
IC90 [2]: 0.0192 µM
GI50 [19]: 0.05 µM
TGI [19]: 0.19 µM
CC50 [19]: 0.51 µM
GI50 [36]: 0.9 µM
LC50 [36]: > 100 µM
TGI [36]: > 100 µM
IC50 [3]: 0.0114 µM
IC90 [3]: 0.0208 µM
half-life [4]: > 2 h
Selectivity index [37]: >18000
CL [5]: < 0.6 mL/min/g
IC50 [38]: > 200 µM
IC50 [39]: > 200 µM
half-life [6]: > 2 h
Selectivity index [40]: >392
IC50 [7]: 0.0062 µM
IC90 [7]: 0.0113 µM
Selectivity index [41]: >33000
GI50 [8]: 0.45 µM
LC50 [8]: 67.9 µM
TGI [8]: 14.2 µM
CL [9]: < 0.6 mL/min/g
